# Test: Pre-bronchodilator FEV1 and percent predicted FEV1 by spirometry, change from baseline
# Type: in vivo, human
# Method: Spirometry is a standard test to measure patients' lung function.
# The primary endpoint was the proportion of patients with LOAC. The key secondary endpoint for the study was change in pre-bronchodilator FEV1 from baseline at EOT.
# Reversibility is defined as an increase of the absolute FEV1 after administration of bronchodilator and is measured by spirometry as postbronchodilator increase in FEV1 in percent of the prebronchodilator FEV1. After spirometry for measuring prebronchodilator FEV1, participants were to receive 2-4 puffs of albuterol/salbutamol or levalbuterol/levosalbutamol from a primed MDI. The postbronchodilator spirometry may have been repeated several times within 30 minutes after administration of bronchodilator. Alternatively, and only if it was consistent with usual office practice (to be documented), reversibility may have been performed using inhalation of nebulized albuterol/salbutamol or levalbuterol/levosalbutamol.
# Secondary endpoints included pre-bronchodilator FEV1 change from baseline at EOT, ACQ-5 score change from baseline, and AQLQ score change from baseline. Other secondary and exploratory endpoints are described in Table 2.
# [1] = 400 mg BID, Week 12, before LOAC and OCS use, as observed, mITT
# [2] = 400 mg BID, Week 12, observed/LOCF imputed, mITT
# [3] = 400 mg BID, Week 12, on-site conventional spirometry as observed, mITT
# [4] = 400 mg BID, Week 12, reduced model, mITT
# [5] = 400 mg BID, Week 16, before LOAC and OCS use, as observed, mITT
# [6] = 400 mg BID, Week 16, on-site conventional spirometry as observed, mITT
# [7] = 400 mg TID, Week 12, 1 exacerbation within 2 years
# [8] = 400 mg TID, Week 12, 2 exacerbations within 2 years
# [9] = 400 mg TID, Week 12, Eastern Europe
# [10] = 400 mg TID, Week 12, Latin America
# [11] = 400 mg TID, Week 12, age <45 years
# [12] = 400 mg TID, Week 12, age ≥45 years
# [13] = 400 mg TID, Week 12, asthma onset age <12 years
# [14] = 400 mg TID, Week 12, asthma onset age <18 years
# [15] = 400 mg TID, Week 12, asthma onset age ≥12-<18 years
# [16] = 400 mg TID, Week 12, asthma onset age ≥18-<40 years
# [17] = 400 mg TID, Week 12, asthma onset age ≥18 years
# [18] = 400 mg TID, Week 12, asthma onset age ≥40 years
# [19] = 400 mg TID, Week 12, atopic medical conditions: No
# [20] = 400 mg TID, Week 12, atopic medical conditions: Yes
# [21] = 400 mg TID, Week 12, background ICS dose High
# [22] = 400 mg TID, Week 12, background ICS dose Medium
# [23] = 400 mg TID, Week 12, baseline ACQ-5 >2
# [24] = 400 mg TID, Week 12, baseline ACQ-5 ≤2
# [25] = 400 mg TID, Week 12, baseline BMI <25 kg/m^2
# [26] = 400 mg TID, Week 12, baseline BMI ≥25-<30 kg/m^2
# [27] = 400 mg TID, Week 12, baseline BMI ≥30 kg/m^2
# [28] = 400 mg TID, Week 12, baseline FEV1 <2.1955 L (median)
# [29] = 400 mg TID, Week 12, baseline FEV1 reversibility <12%
# [30] = 400 mg TID, Week 12, baseline FEV1 reversibility ≥12%
# [31] = 400 mg TID, Week 12, baseline FEV1 ≥2.1955 L (median)
# [32] = 400 mg TID, Week 12, baseline FeNO <25 ppb
# [33] = 400 mg TID, Week 12, baseline FeNO <35 ppb
# [34] = 400 mg TID, Week 12, baseline FeNO ≥25 ppb
structure (smiles),measurement,setting,value
"CC(C)(C=C(C#N)C(=O)N1CCC[C@@H](n2nc(-c3ccc(Oc4ccccc4)cc3F)c3c(N)ncnc32)C1)N1CCN(C2COC2)CC1 (mixture of isomers) [rilzabrutinib, (R)-2-[3-[4-amino-3-(2-fluoro-4-phenoxy-phenyl)pyrazolo[3,4-d]pyrimidin-1-yl]piperidine-1-carbonyl]-4-methyl-4-[4-(oxetan-3-yl)piperazin-1-yl]pent-2-enenitrile]","Pre-bronchodilator FEV1 change from baseline, median",[1],-0.04 L
same,"Pre-bronchodilator FEV1 percent change from baseline, mean",[1],−2.63%
same,"Pre-bronchodilator FEV1 percent change from baseline, median",[1],−2.04%
same,"Change from baseline in pre-bronchodilator FEV1, Mean",[2],-0.04 L
same,"Change from baseline in pre-bronchodilator FEV1, Median",[2],-0.02 L
same,"Pre-bronchodilator FEV1, Mean",[2],2.02 L
same,"Pre-bronchodilator FEV1, Median",[2],1.88 L
same,"Pre-bronchodilator FEV1, mean",[2],2.02 L
same,"Pre-bronchodilator FEV1, median",[2],1.88 L
same,"Pre-bronchodilator FEV1 change from baseline, LS Mean",[2],-0.07 L
same,"Pre-bronchodilator FEV1 change from baseline, LS Mean Diff vs. placebo",[2],0.01 L
same,"Pre-bronchodilator FEV1 change from baseline, Mean",[2],-0.04 L
same,"Pre-bronchodilator FEV1 change from baseline, median",[2],-0.02 L
same,"Pre-bronchodilator FEV1, mean",[3],1.97 L
same,"Pre-bronchodilator FEV1, median",[3],1.82 L
same,"Pre-bronchodilator FEV1 change from baseline, Mean",[3],-0.03 L
same,"Pre-bronchodilator FEV1 change from baseline, median",[3],-0.05 L
same,"Pre-bronchodilator FEV1 percent change from baseline, mean",[3],−3.27%
same,"Pre-bronchodilator FEV1 percent change from baseline, median",[3],−2.70%
same,"Change from baseline in pre-bronchodilator FEV1, LS Mean",[4],-0.07 L
same,"Change from baseline in pre-bronchodilator FEV1, LS Mean diff vs. placebo",[4],0.01 L
same,"Pre-bronchodilator FEV1, mean",[5],2.30 L
same,"Pre-bronchodilator FEV1, median",[5],2.01 L
same,"Pre-bronchodilator FEV1 change from baseline, Mean",[5],0.29 L
same,"Pre-bronchodilator FEV1 change from baseline, median",[5],0.28 L
same,"Pre-bronchodilator FEV1 percent change from baseline, mean",[5],13.96%
same,"Pre-bronchodilator FEV1 percent change from baseline, median",[5],15.23%
same,"Pre-bronchodilator FEV1, mean",[6],2.30 L
same,"Pre-bronchodilator FEV1, median",[6],2.01 L
same,"Pre-bronchodilator FEV1 change from baseline, Mean",[6],0.29 L
same,"Pre-bronchodilator FEV1 change from baseline, median",[6],0.28 L
same,"Pre-bronchodilator FEV1 percent change from baseline, mean",[6],13.96%
same,"Pre-bronchodilator FEV1 percent change from baseline, median",[6],15.23%
same,"Pre-bronchodilator FEV1 change from baseline, LS Mean",[7],-0.14 L
same,"Pre-bronchodilator FEV1 change from baseline, LS Mean Diff vs. placebo",[7],-0.13 L
same,"Pre-bronchodilator FEV1 change from baseline, Mean",[7],-0.16 L
same,"Pre-bronchodilator FEV1 change from baseline, LS Mean",[8],-0.08 L
same,"Pre-bronchodilator FEV1 change from baseline, LS Mean Diff vs. placebo",[8],0.06 L
same,"Pre-bronchodilator FEV1 change from baseline, Mean",[8],-0.16 L
same,"Pre-bronchodilator FEV1 change from baseline, Mean","400 mg TID, Week 12, >2 exacerbations within 2 years",0.01 L
same,"Pre-bronchodilator FEV1 change from baseline, LS Mean",[9],-0.18 L
same,"Pre-bronchodilator FEV1 change from baseline, LS Mean Diff vs. placebo",[9],-0.08 L
same,"Pre-bronchodilator FEV1 change from baseline, Mean",[9],-0.18 L
same,"Pre-bronchodilator FEV1 change from baseline, LS Mean",[10],-0.08 L
same,"Pre-bronchodilator FEV1 change from baseline, LS Mean Diff vs. placebo",[10],-0.12 L
same,"Pre-bronchodilator FEV1 change from baseline, Mean",[10],-0.08 L
same,"Pre-bronchodilator FEV1 change from baseline, Mean","400 mg TID, Week 12, Western Countries",-0.18 L
same,"Pre-bronchodilator FEV1 change from baseline, LS Mean",[11],-0.24 L
same,"Pre-bronchodilator FEV1 change from baseline, LS Mean Diff vs. placebo",[11],-0.18 L
same,"Pre-bronchodilator FEV1 change from baseline, Mean",[11],-0.24 L
same,"Pre-bronchodilator FEV1 change from baseline, LS Mean",[12],-0.04 L
same,"Pre-bronchodilator FEV1 change from baseline, LS Mean Diff vs. placebo",[12],-0.01 L
same,"Pre-bronchodilator FEV1 change from baseline, Mean",[12],-0.08 L
same,"Pre-bronchodilator FEV1 change from baseline, LS Mean",[13],-0.34 L
same,"Pre-bronchodilator FEV1 change from baseline, LS Mean Diff vs. placebo",[13],-0.28 L
same,"Pre-bronchodilator FEV1 change from baseline, Mean",[13],-0.25 L
same,"Pre-bronchodilator FEV1 change from baseline, LS Mean",[14],-0.25 L
same,"Pre-bronchodilator FEV1 change from baseline, LS Mean Diff vs. placebo",[14],-0.27 L
same,"Pre-bronchodilator FEV1 change from baseline, Mean",[14],-0.18 L
same,"Pre-bronchodilator FEV1 change from baseline, LS Mean",[15],0.05 L
same,"Pre-bronchodilator FEV1 change from baseline, LS Mean Diff vs. placebo",[15],-0.40 L
same,"Pre-bronchodilator FEV1 change from baseline, Mean",[15],-0.01 L
same,"Pre-bronchodilator FEV1 change from baseline, LS Mean",[16],-0.18 L
same,"Pre-bronchodilator FEV1 change from baseline, LS Mean Diff vs. placebo",[16],-0.08 L
same,"Pre-bronchodilator FEV1 change from baseline, Mean",[16],-0.17 L
same,"Pre-bronchodilator FEV1 change from baseline, LS Mean",[17],-0.10 L
same,"Pre-bronchodilator FEV1 change from baseline, LS Mean Diff vs. placebo",[17],-0.02 L
same,"Pre-bronchodilator FEV1 change from baseline, Mean",[17],-0.14 L
same,"Pre-bronchodilator FEV1 change from baseline, LS Mean",[18],0.01 L
same,"Pre-bronchodilator FEV1 change from baseline, LS Mean Diff vs. placebo",[18],0.06 L
same,"Pre-bronchodilator FEV1 change from baseline, Mean",[18],-0.07 L
same,"Pre-bronchodilator FEV1 change from baseline, LS Mean",[19],-0.15 L
same,"Pre-bronchodilator FEV1 change from baseline, LS Mean Diff vs. placebo",[19],-0.11 L
same,"Pre-bronchodilator FEV1 change from baseline, Mean",[19],-0.18 L
same,"Pre-bronchodilator FEV1 change from baseline, LS Mean",[20],-0.12 L
same,"Pre-bronchodilator FEV1 change from baseline, LS Mean Diff vs. placebo",[20],-0.04 L
same,"Pre-bronchodilator FEV1 change from baseline, Mean",[20],-0.09 L
same,"Pre-bronchodilator FEV1 change from baseline, LS Mean",[21],-0.13 L
same,"Pre-bronchodilator FEV1 change from baseline, LS Mean Diff vs. placebo",[21],-0.07 L
same,"Pre-bronchodilator FEV1 change from baseline, Mean",[21],-0.13 L
same,"Pre-bronchodilator FEV1 change from baseline, LS Mean",[22],-0.15 L
same,"Pre-bronchodilator FEV1 change from baseline, LS Mean Diff vs. placebo",[22],-0.10 L
same,"Pre-bronchodilator FEV1 change from baseline, Mean",[22],-0.18 L
same,"Pre-bronchodilator FEV1 change from baseline, LS Mean",[23],-0.15 L
same,"Pre-bronchodilator FEV1 change from baseline, LS Mean Diff vs. placebo",[23],-0.16 L
same,"Pre-bronchodilator FEV1 change from baseline, Mean",[23],-0.17 L
same,"Pre-bronchodilator FEV1 change from baseline, LS Mean",[24],-0.12 L
same,"Pre-bronchodilator FEV1 change from baseline, LS Mean Diff vs. placebo",[24],-0.01 L
same,"Pre-bronchodilator FEV1 change from baseline, Mean",[24],-0.10 L
same,"Pre-bronchodilator FEV1 change from baseline, LS Mean",[25],-0.19 L
same,"Pre-bronchodilator FEV1 change from baseline, LS Mean Diff vs. placebo",[25],-0.16 L
same,"Pre-bronchodilator FEV1 change from baseline, Mean",[25],-0.21 L
same,"Pre-bronchodilator FEV1 change from baseline, LS Mean",[26],-0.11 L
same,"Pre-bronchodilator FEV1 change from baseline, LS Mean Diff vs. placebo",[26],-0.05 L
same,"Pre-bronchodilator FEV1 change from baseline, Mean",[26],-0.14 L
same,"Pre-bronchodilator FEV1 change from baseline, LS Mean",[27],-0.11 L
same,"Pre-bronchodilator FEV1 change from baseline, LS Mean Diff vs. placebo",[27],-0.07 L
same,"Pre-bronchodilator FEV1 change from baseline, Mean",[27],-0.14 L
same,"Pre-bronchodilator FEV1 change from baseline, LS Mean",[28],-0.03 L
same,"Pre-bronchodilator FEV1 change from baseline, LS Mean Diff vs. placebo",[28],-0.09 L
same,"Pre-bronchodilator FEV1 change from baseline, Mean",[28],-0.05 L
same,"Pre-bronchodilator FEV1 change from baseline, LS Mean",[29],-0.16 L
same,"Pre-bronchodilator FEV1 change from baseline, LS Mean Diff vs. placebo",[29],-0.12 L
same,"Pre-bronchodilator FEV1 change from baseline, Mean",[29],-0.18 L
same,"Pre-bronchodilator FEV1 change from baseline, LS Mean",[30],-0.01 L
same,"Pre-bronchodilator FEV1 change from baseline, LS Mean Diff vs. placebo",[30],-0.02 L
same,"Pre-bronchodilator FEV1 change from baseline, Mean",[30],0.00 L
same,"Pre-bronchodilator FEV1 change from baseline, LS Mean",[31],-0.22 L
same,"Pre-bronchodilator FEV1 change from baseline, LS Mean Diff vs. placebo",[31],-0.09 L
same,"Pre-bronchodilator FEV1 change from baseline, Mean",[31],-0.21 L
same,"Pre-bronchodilator FEV1 change from baseline, LS Mean",[32],-0.16 L
same,"Pre-bronchodilator FEV1 change from baseline, LS Mean Diff vs. placebo",[32],-0.12 L
same,"Pre-bronchodilator FEV1 change from baseline, Mean",[32],-0.19 L
same,"Pre-bronchodilator FEV1 change from baseline, LS Mean",[33],-0.14 L
same,"Pre-bronchodilator FEV1 change from baseline, LS Mean Diff vs. placebo",[33],-0.09 L
same,"Pre-bronchodilator FEV1 change from baseline, Mean",[33],-0.18 L
same,"Pre-bronchodilator FEV1 change from baseline, LS Mean",[34],-0.09 L
same,"Pre-bronchodilator FEV1 change from baseline, LS Mean Diff vs. placebo",[34],-0.04 L
same,"Pre-bronchodilator FEV1 change from baseline, Mean",[34],-0.09 L
same,"Pre-bronchodilator FEV1 change from baseline, LS Mean","400 mg TID, Week 12, baseline FeNO ≥35 ppb",-0.07 L

# Reference: patent publication US20260345619A1 (Principia Biopharma Inc., priority 2023, published 2026)
